Measurements taken from patent US20240409557A1, “5,6-FUSED AND 6,6-FUSED BICYCLIC ALCOHOLS AND ETHERS AND COMPOSITIONS FOR USE AS 15-PROSTAGLANDIN DEHYDROGENASE MODULATORS” (AMGEN INC., priority 2023, published 2024).
pIC50: −log10 of the molar value.

Tests used:
[1] = molecular target: T1, 15-PGDH in A549 cells (Homo sapiens, UniProt P15428); assay: A549 cellular 15-PGDH assay (PGE2 accumulation, HTRF); format: cell-based; conditions: interleukin-stimulated, inhibitor 24 hrs, PGE2 by competitive HTRF, read-out: A549 Cell Assay IC50
T1 construct: endogenous in cells; host or cells: A549
T1 sequence (P15428 1-266): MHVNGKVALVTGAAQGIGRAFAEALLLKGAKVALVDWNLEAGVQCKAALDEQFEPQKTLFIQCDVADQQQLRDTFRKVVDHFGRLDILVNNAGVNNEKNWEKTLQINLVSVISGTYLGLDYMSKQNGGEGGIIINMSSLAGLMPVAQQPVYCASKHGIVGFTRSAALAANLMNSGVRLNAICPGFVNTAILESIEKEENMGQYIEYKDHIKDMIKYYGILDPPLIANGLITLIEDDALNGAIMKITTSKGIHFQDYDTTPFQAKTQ
Summary of the method: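 IL-13-stimulated A549 lung carcinoma cells released PGE2, which was measured in supernatants by competitive HTRF with a Eu-cryptate anti-PGE2 antibody and labelled PGE2. Signal falls as PGE2 rises. IC50 values were derived from the binding data.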

[2] = molecular target: T2, human recombinant 15-PGDH (Homo sapiens, UniProt P15428); assay: Recombinant 15-PGDH enzymatic inhibition assay (PGDH-Lumi, NADH signal); format: biochemical; conditions: recombinant 15-PGDH; 15 min pre-incubation, 60 min reaction with PGE2 and NAD+, NADH signal
T2 sequence (P15428 1-266): T1 sequence (P15428 1-266)
Summary of the method: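 Recombinant 15-PGDH pre-incubated 15 min at room temperature with compound (22 concentrations, 2-fold dilutions) in 50 mM Tris pH 7.5, 0.01% Tween-20, […].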

pIC50 [1]	pIC50 [2]	Structure (SMILES)
10.23	9.55	Cn1cc2cc(-c3ccc4cc(C5(O)CC6(CC6)C5)sc4n3)cnc2n1 [Compound C61, 5-(6-(2-methyl-2H-pyrazolo[3,4-b]pyridin-5-yl)thieno[2,3-b]pyridin-2-yl)spiro[2.3]hexan-5-o1]
9.94	9.37	Cn1cc2cc(-c3ccc4cc([C@]5(O)C[C@@](C)(C#N)C5)sc4n3)cnc2n1 [Compound C63C, cis-3-hydroxy-1-methyl-3-(6-(2-methyl-2H-pyrazolo[3,4-b]pyridin-5-yl)thieno[2,3-b]pyridin-2-yl)cyclobutanecarbonitrile]
10.06	9.42	Cn1cc2cc(-c3ccc4cc([C@]5(O)C[C@](C)(C#N)C5)sc4n3)cnc2n1 [Compound C63T, trans-3-hydroxy-1-methyl-3-(6-(2-methyl-2H-pyrazolo[3,4-b]pyridin-5-yl)thieno[2,3-b]pyridin-2-yl)cyclobutanecarbonitrile]
10.73	9.27	Cn1cc2cc(-c3ccc4cc([C@]5(O)C[C@@H](OC(F)(F)F)C5)sc4n3)cnc2n1 [Compound C67C, cis-1-(6-(2-methyl-2H-pyrazolo[3,4-b]pyridin-5-yl)thieno[2,3-b]pyridin-2-yl)-3-(trifluoromethoxy)cyclobutanol]
9.44	9.24	Cn1cc2cc(-c3ccc4nc(C5(O)CC(C)(C)C5)sc4n3)cnc2n1 [Compound C68, 3,3-dimethyl-1-(5-(2-methyl-2H-pyrazolo[3,4-b]pyridin-5-yl)[1,3]thiazolo[5,4-b]pyridin-2-yl)cyclobutanol]
9.14	8.94	CO[C@H]1C[C@](O)(c2sc3nc(-c4cnc5nn(C)cc5c4)ccc3c2Cl)C1 [Compound C69C, cis-1-(3-chloro-6-(2-methyl-2H-pyrazolo[3,4-b]pyridin-5-yl)thieno[2,3-b]pyridin-2-yl)-3-methoxycyclobutanol]
9.85	9.27	Cn1cc2cc(-c3ncc4cc([C@]5(O)C[C@@H](C(F)(F)F)C5)sc4n3)cnc2n1 [Compound C71C, cis-1-(2-(2-methyl-2H-pyrazolo[3,4-b]pyridin-5-yl)thieno[2,3-d]pyrimidin-6-yl)-3-(trifluoromethyl)cyclobutanol]
8.90	8.61	Cn1cc2cc(-c3ccc4c(Cl)c(C5(O)CC(C)(C)C5)sc4n3)cnc2n1 [Compound C73, 1-(3-chloro-6-(2-methyl-2H-pyrazolo[3,4-b]pyridin-5-yl)thieno[2,3-b]pyridin-2-yl)-3,3-dimethylcyclobutanol]
9.72	9.34	Cn1cc2cc(-c3ccc4nc([C@]5(O)C[C@@H](C(F)(F)F)C5)sc4n3)cnc2n1 [Compound C74C, cis-1-(5-(2-methyl-2H-pyrazolo[3,4-b]pyridin-5-yl)[1,3]thiazolo[5,4-b]pyridin-2-yl)-3-(trifluoromethyl)cyclobutanol]
8.97	9.15	Cn1cc2cc(-c3ccc4c(Cl)c([C@]5(O)C[C@@H](C(F)(F)F)C5)sc4n3)cnc2n1 [Compound C75C, cis-1-(3-chloro-6-(2-methyl-2H-pyrazolo[3,4-b]pyridin-5-yl)thieno[2,3-b]pyridin-2-yl)-3-(trifluoromethyl)cyclobutanol]
8.99	9.08	Cn1nnc2cc(-c3ccc4cc([C@]5(O)C[C@@H](C(F)F)C5)sc4n3)cnc21 [Compound C76C, cis-3-(difluoromethyl)-1-(6-(3-methyl-3H-[1,2,3]triazolo[4,5-b]pyridin-6-yl)thieno[2,3-b]pyridin-2-yl)cyclobutanol]
8.04	8.11	Cc1c(C2(O)CC(F)(F)C2)sc2nc(-c3cnc4nn(C)cc4c3)ccc12 [Compound C77, 3,3-difluoro-1-(3-methyl-6-(2-methyl-2H-pyrazolo[3,4-b]pyridin-5-yl)thieno[2,3-b]pyridin-2-yl)cyclobutanol]
8.62	8.99	Cc1c2ccc(-c3cnc4nn(C)cc4c3)nc2sc1[C@]1(O)C[C@@H](C(F)(F)F)C1 [Compound C78C, cis-1-(3-methyl-6-(2-methyl-2H-pyrazolo[3,4-b]pyridin-5-yl)thieno[2,3-b]pyridin-2-yl)-3-(trifluoromethyl)cyclobutanol]
9.08	9.23	Cn1nnc2cc(-c3ccc4cc([C@]5(O)C[C@@H](C(F)(F)F)C5)sc4n3)cnc21 [Compound C79C, cis-1-(6-(3-methyl-3H-[1,2,3]triazolo[4,5-b]pyridin-6-yl)thieno[2,3-b]pyridin-2-yl)-3-(trifluoromethyl)cyclobutanol]
8.90	9.11	Cn1cc2cc(-c3ncc4cc([C@]5(O)C[C@@H](C(F)F)C5)sc4n3)cnc2n1 [Compound C80C, cis-3-(difluoromethyl)-1-(2-(2-methyl-2H-pyrazolo[3,4-b]pyridin-5-yl)thieno[2,3-d]pyrimidin-6-yl)cyclobutanol]
8.57	9.19	Cn1cc2cc(-c3ccc4nc([C@]5(O)C[C@@H](C(F)F)C5)sc4n3)cnc2n1 [Compound C81C, cis-3-(difluoromethyl)-1-(5-(2-methyl-2H-pyrazolo[3,4-b]pyridin-5-yl)[1,3]thiazolo[5,4-b]pyridin-2-yl)cyclobutanol]
7.47	8.02	Cn1nnc2cc(-c3ccc4nc([C@]5(O)C[C@@H](C(F)F)C5)sc4n3)cnc21 [Compound C82C, cis-3-(difluoromethyl)-1-(5-(3-methyl-3H-[1,2,3]triazolo[4,5-b]pyridin-6-yl)[1,3]thiazolo[5,4-b]pyridin-2-yl)cyclobutanol]
7.91	8.27	Cc1c2ccc(-c3cnc4nn(C)cc4c3)nc2sc1[C@]1(O)C[C@@H](C(F)F)C1 [Compound C83C, cis-3-(difluoromethyl)-1-(3-methyl-6-(2-methyl-2H-pyrazolo[3,4-b]pyridin-5-yl)thieno[2,3-b]pyridin-2-yl)cyclobutanol]
7.88	8.11	Cn1cc2cc(-c3ccc4sc([C@]5(O)C[C@@H](C(F)F)C5)cc4n3)cnc2n1 [Compound C84C, cis-3-(difluoromethyl)-1-(5-(2-methyl-2H-pyrazolo[3,4-b]pyridin-5-y1)thieno[3,2-b]pyridin-2-yl)cyclobutanol]
8.12	8.54	Cn1nnc2cc(-c3ncc4cc([C@]5(O)C[C@@H](C(F)F)C5)sc4n3)cnc21 [Compound C85C, cis-3-(difluoromethyl)-1-(2-(3-methyl-3H-[1,2,3]triazolo[4,5-b]pyridin-6-yl)thieno[2,3-d]pyrimidin-6-yl)cyclobutanol]
8.39	8.82	Cn1cc2cc(-c3ccc4sc([C@]5(O)C[C@@H](C(F)(F)F)C5)cc4n3)cnc2n1 [Compound C86C, cis-1-(5-(2-methyl-2H-pyrazolo[3,4-b]pyridin-5-yl)thieno[3,2-b]pyridin-2-yl)-3-(trifluoromethyl)cyclobutanol]
9.07	9.21	CCn1cc2cc(-c3ccc4cc([C@]5(O)C[C@@H](C(F)F)C5)sc4n3)cnc2n1 [Compound C87C, cis-3-(difluoromethyl)-1-(6-(2-ethyl-2H-pyrazolo[3,4-b]pyridin-5-yl)thieno[2,3-b]pyridin-2-yl)cyclobutanol]
7.31	7.47	Cn1cc2cc(-c3ncc4sc([C@]5(O)C[C@@H](C(F)F)C5)cc4n3)cnc2n1 [Compound C89C, cis-3-(difluoromethyl)-1-(2-(2-methyl-2H-pyrazolo[3,4-b]pyridin-5-yl)thieno[3,2-d]pyrimidin-6-yl)cyclobutanol]
7.48	7.84	Cc1c2cnc(-c3cnc4nn(C)cc4c3)nc2sc1[C@]1(O)C[C@@H](C(F)F)C1 [Compound C90C, cis-3-(difluoromethyl)-1-(5-methyl-2-(2-methyl-2H-pyrazolo[3,4-b]pyridin-5-yl)thieno[2,3-d]pyrimidin-6-yl)cyclobutanol]
8.28	8.84	Cc1cn2ncc(-c3ccc4cc([C@]5(O)C[C@@H](C(F)F)C5)sc4n3)cc2n1 [Compound C92C, cis-3-(difluoromethyl)-1-(6-(2-methylimidazo[1,2-b]pyridazin-7-yl)thieno[2,3-b]pyridin-2-yl)cyclobutanol]
8.71	9.23	Cc1nc2cc(-c3ccc4cc([C@]5(O)C[C@@H](C(F)F)C5)sc4n3)cnc2[nH]1 [Compound C93C, cis-3-(difluoromethyl)-1-(6-(2-methyl-3H-imidazo[4,5-b]pyridin-6-yl)thieno[2,3-b]pyridin-2-yl)cyclobutanol]
8.84	8.70	CO[C@H]1C[C@](O)(c2cc3cnc(-c4cnc5nn(C)cc5c4)nc3s2)C1 [Compound C94C, cis-3-methoxy-1-(2-(2-methyl-2H-pyrazolo[3,4-b]pyridin-5-yl)thieno[2,3-d]pyrimidin-6-yl)cyclobutanol]
8.01	8.90	Cn1nnc2cc(-c3ncc4cc([C@]5(O)C[C@@H](C(F)(F)F)C5)sc4n3)cnc21 [Compound C95C, cis-1-(2-(3-methyl-3H-[1,2,3]triazolo[4,5-b]pyridin-6-yl)thieno[2,3-d]pyrimidin-6-yl)-3-(trifluoromethyl)cyclobutanol]
